From PMC11013945, “Antiprotozoal Activity of Plants Used in the Management of Sleeping Sickness in Angola and Bioactivity-Guided Fractionation of Brasenia schreberi J.F.Gmel and Nymphaea lotus L. Active against T. b. rhodesiense” (Molecules, 2024)
≈ marks a conversion by molar mass, not a printed value.

Columns and labels:
[1] = tested on: leishmania; set-up: method as in PMID 16643059; settings: cited from earlier work
[2] = tested on: T. cruzi; assay: In vitro growth inhibition of T. cruzi intracellular amastigotes grown in L6 rat myoblasts; assay type: cell-based, Trypanosoma cruzi; settings: Table 4, pure compounds; for IC50: Trypanosoma cruzi, Myoblast, mean of two independent experiments
Experimental: (§1) In vitro growth inhibitory activity of the extracts and pure compounds against T. cruzi (intracellular amastigote forms grown in L6 rat myoblasts), L. donovani (axenic amastigote forms in acidic medium or intracellular amastigotes in mouse primary macrophages), and P. falciparum (erythrocytic stages in culture) was determined as described previously. Testing against intracellular L. donovani was performed as follows: mouse peritoneal macrophages (4 × 104 in 100 µL RPMI 1640 medium with 10% heat-inactivated FBS) in 96-well plates were infected with amastigotes (2 × 105 in 100 µL medium). After 24 h, the medium was exchanged twice to remove free amastigotes. Test compounds were added, and the plates incubated for 96 h at 37 °C under 5% CO2. Then, the medium was removed, the cells were fixed with 50 µL 4% formaldehyde, and stained with 5 µM DRAQ5. Nine images were taken per well on a ImageXpress XLS (MD) microscope (Molecular Devices, San Jose, CA, USA) using a 20× air objective (635 nm excitation: 690/50 emission) and analyzed with a script developed on Meta Xpress (MD). Cytotoxicity against L6 cells was assessed by using a similar protocol as outlined for IC50 determination with T. b. rhodesiense, except that rat skeletal myoblasts (L6 cells) were used. The medium was RPMI 1640 medium supplemented with 1% L-glutamine (200 mM) and 10% fetal bovine serum. Reference compounds were melarsoprol for T. b. rhodesiense, benznidazole for T. cruzi, miltefosine for L. donovani, chloroquine and artesunate for P. falciparum, and podophyllotoxin for L6 cells.

[3] = tested on: L. donovani; assay: In vitro growth inhibition of L. donovani axenic amastigotes; assay type: cell-based, Leishmania donovani; settings: Table 4, pure compounds; for IC50: Leishmania donovani, axenic amastigote
Experimental: as §1

[4] = tested on: P. falciparum; assay: In vitro growth inhibition of P. falciparum erythrocytic stages; assay type: cell-based, Plasmodium falciparum; settings: Table 4, pure compounds; for IC50: Plasmodium falciparum
Experimental: as §1

[5] = tested on: L6 cells; assay: Cytotoxicity against L6 cells; assay type: cell-based; settings: Rattus norvegicus, Table 4, pure compounds
Experimental: as §1

[6] = tested on: T. b. rhodesiense STIB 900; assay: IC50 determination against T. b. rhodesiense, serial dilutions, Alamar blue; assay type: cell-based, Trypanosoma brucei rhodesiense; settings: Table 4, pure compounds; for IC50: Trypanosoma brucei
[7] = tested on: epimastigote T. cruzi; set-up: method as in PMID 27347554; settings: read-out: IC50 against epimastigote T. cruzi; cited from earlier work
[8] = tested on: P. falciparum; set-up: method as in PMID 29333044; settings: isolated from Alectryon serratus leaves; cited from earlier work
[9] = tested on: sn-glycerol-3-phosphate oxidase system of T. b. brucei; settings: in vitro; cited from earlier work
[10] = tested on: intracellular L. donovani; assay: Intramacrophage assay, intracellular L. donovani amastigotes in mouse peritoneal macrophages; assay type: cell-based; settings: Leishmania donovani, Macrophage
Experimental: as §1, with “Reference compounds were melarsoprol for T. b. rhodesiense, benznidazole for T. cruzi, miltefosine for L. donovani, chloroquine and artesunate for P. falciparum, and podophyllotoxin for L6 cells.” left out

[11] = tested on: Trypanosoma brucei rhodesiense STIB900; assay: Growth inhibition (GI) of T. b. rhodesiense bloodstream forms at a single concentration, Alamar blue; assay type: cell-based; settings: read-out: Growth inhibition (%)
Experimental: A total of 122 extracts were prepared from different parts of the nine plant species. Each plant part was extracted consecutively with hexane, dichloromethane, ethanol, methanol, and water. The extracts were tested for their in vitro growth inhibition (GI) activity against bloodstream forms of Trypanosoma brucei rhodesiense STIB900, our reference strain for drug testing against African trypanosomes at a concentration of 20 µg/mL. […] A detailed description of the plant species, the parts extracted, solvent, extraction yield, and percentage of growth inhibition (GI%) is given in Supplementary Table S1.
Growth inhibition (GI) activity against T. b. rhodesiense STIB 900 was determined as follows: in a 96-well microtiter plate, 50 µL of HMI-9 medium supplemented with 15% heat-inactivated horse serum were added to each well. A total of 10 µL of the plant extract stock solution was added to each well. Then, 50 µL of bloodstream-form trypanosomes were added, adjusted with a cell counter (CASY, Schärfe System, Germany) to 4 × 10^4 cells/mL. […] Then, the plate was read with a Spectramax Gemini XS microplate fluorometer (Molecular Devices Corporation, Sunnyvale, CA, USA) using an excitation wavelength of 530 nm and an emission wavelength of 590 nm. Fluorescence was expressed as percentage of the untreated control. […]

[12] = mean of two independent experiments

SMILES | IC50 [2] | IC50 [3] | IC50 [4] | P. falciparum IC50 [4] | IC50 [10] | IC50 against leishmania [1] | T. cruzi SI [2] | L. donovani SI [3] | P. falciparum SI [4] | IC50 [5] | T. b. rhodesiense SI [6] | T. b. rhodesiense IC50 [6, 12] | IC50 [6, 12] | IC50 [7] | IC50 against P. falciparum [8] | inhibition of sn-glycerol-3-phosphate oxidase system [9] | inhibition at 0.072 µg/mL [11]
C=CCCC/C=C\C/C=C\CCCCCCCc1cc(O)cc(O)c1 [5-heptadeca-8′Z,11′Z,16-trienylresorcinol] | – | – | – | – | – | 3.6 µg/mL (≈ 10.5 µM) | – | – | – | – | – | – | – | – | – | – | –
CCOC(=O)c1cc(O)c(O)c(O)c1 [Ethyl gallate (4), ethyl gallate] | 16 µg/mL (≈ 80.7 µM) | 6.8 µg/mL (≈ 34.3 µM) | 2.1 µg/mL (≈ 10.6 µM) | 3.0 µg/mL | – | – | 0.9 | 2.2 | 4.9 | 15 µg/mL (≈ 75.7 µM) | 25 | 0.6 µg/mL | 0.5 µg/mL (≈ 2.52 µM) | > 100 µM | – | – | –
O=C(O)c1cc(O)c(O)c(O)c1 [Gallic acid (1), gallic acid] | 66 µg/mL (≈ 388 µM) | 56 µg/mL (≈ 329 µM) | > 10 µg/mL | – | – | – | 0.2 | 0.3 | – | 16 µg/mL (≈ 94.1 µM) | 34 | – | 0.5 µg/mL (≈ 2.94 µM) | > 100 µM | 0.0013 µg/mL (≈ 0.00764 µM) | inhibited | –
O=c1c(O)c(-c2ccc(O)c(O)c2)oc2c(O)c(O[C@@H]3O[C@H](CO)[C@@H](O)[C@H](O)[C@H]3O)cc(O)c12 [Gossypetin-7-O-β-glucopyranoside (6), gossypetin-7-O-β-glucopyranoside] | 12 µg/mL (≈ 25 µM) | 53 µg/mL (≈ 110 µM) | – | – | – | – | 0.8 | 0.2 | – | 8.9 µg/mL (≈ 18.5 µM) | 1.6 | – | 5.5 µg/mL (≈ 11.4 µM) | – | – | – | –
O=c1cc(-c2ccc(O)c(O)c2)oc2c(O)c(O[C@@H]3O[C@H](CO)[C@@H](O)[C@H](O)[C@H]3O)cc(O)c12 [Hypolaetin-7-O-glucoside (7), hypolaetin-7-O-glucoside] | 49 µg/mL (≈ 106 µM) | 52 µg/mL (≈ 112 µM) | – | – | – | – | 0.4 | 0.4 | – | 19 µg/mL (≈ 40.9 µM) | 3.2 | – | 5.7 µg/mL (≈ 12.3 µM) | – | – | – | –
Nc1nc(N)nc(Nc2ccc([As]3SCC(CO)S3)cc2)n1 (stereo not drawn) [melarsoprol] | – | – | – | – | – | – | – | – | – | – | – | – | – | – | – | – | 98.4%

Now from value to compound, other results behind:

IC50 [2] | IC50 [3] | IC50 [4] | P. falciparum IC50 [4] | IC50 [10] | SMILES | IC50 against leishmania [1] | T. cruzi SI [2] | L. donovani SI [3] | P. falciparum SI [4] | IC50 [5] | T. b. rhodesiense SI [6] | T. b. rhodesiense IC50 [6, 12] | IC50 [6, 12] | IC50 [7] | IC50 against P. falciparum [8] | inhibition of sn-glycerol-3-phosphate oxidase system [9] | inhibition at 0.072 µg/mL [11]
16 µg/mL (≈ 86.9 µM) | 8.5 µg/mL (≈ 46.2 µM) | 3 µg/mL (≈ 16.3 µM) | 2.1 µg/mL | – | COC(=O)c1cc(O)c(O)c(O)c1 [Methyl gallate (2), methyl gallate] | – | 1.0 | 1.9 | 7.8 | 16 µg/mL (≈ 86.9 µM) | 15 | – | 1.1 µg/mL (≈ 5.97 µM) | > 100 µM | 0.0025 µg/mL (≈ 0.0136 µM) | inhibited | –
44 µg/mL (≈ 46.8 µM) | 15 µg/mL (≈ 15.9 µM) | 6.7 µg/mL (≈ 7.12 µM) | – | – | O=C(OC[C@@H]1O[C@H](OC(=O)c2cc(O)c(O)c(O)c2)[C@@H](OC(=O)c2cc(O)c(O)c(O)c2)[C@H](OC(=O)c2cc(O)c(O)c(O)c2)[C@H]1OC(=O)c1cc(O)c(O)c(O)c1)c1cc(O)c(O)c(O)c1 [Pentagalloyl-β-glucopyranoside (5), 1,2,3,4,6 pentagalloyl-β-glucopyranoside] | – | 0.5 | 1.4 | 3.1 | 21 µg/mL (≈ 22.3 µM) | 1.0 | – | 20 µg/mL (≈ 21.3 µM) | – | – | – | –
9.1 µg/mL (≈ 26.6 µM) | 2.5 µg/mL (≈ 7.3 µM) | – | – | > 11 µg/mL | CC/C=C\C/C=C\C/C=C\CCCCCCCc1cc(O)cc(O)c1 [Resorcinol-alkyl (8), 5-[(8Z,11Z,14Z)-heptadeca-8,11,14-trienyl] resorcinol] | – | 1.4 | 5.2 | – | 13 µg/mL (≈ 38 µM) | 2.5 | – | 5.3 µg/mL (≈ 15.5 µM) | – | – | – | –
